Patent US7018813B2 (priority 2000, dated 2006)
Like-named read-outs stand apart in the source and are kept apart here.

Assays:
[1] = at 25° C.; cited from earlier work
[2] = cited from earlier work
[3] = tested on: B. pertussis strain ATCC 9797 or CS87; format: cell-based, Bordetella pertussis

Compound | Ksp [1] | solubility in water ([2]; at 25° C.) [µM] | solubility in water ([2]; at 100° C.) [µM] | amount of PT [3] [μg/mL/OD650]
O=S(=O)([O-])[O-].[Ag+].[Ag+] [AgSO4] | 1.19 × 10^−5 | – | – | –
O=S(=O)([O-])[O-].[Sr+2] [SrSO4] | 3.42 × 10^−7 | – | – | –
BaSO4 | 1.05 × 10^−10 | 10.7 | 17.7 | –
Barium chloride [BaCl2] | – | – | – | 0.525
O=S(=O)([O-])[O-].[Pb+2] [PbSO4] | 1.82 × 10^−8 | – | – | –
